Source: patent US12350273B2, “Treatment of SMA” (Hoffmann-La Roche Inc., priority 2017, dated 2025)

Tests used:
[1] = Aqueous solubility; assay type: physicochemical
[2] = system: SMN protein; test: Study BP39055 Part 1: SMN protein in Type 2 and 3 SMA patients; assay type: in vivo, human
From the text: Study BP39055 is a two-part operationally seamless, multi-center, randomized, placebo-controlled, double-blind study to investigate the safety, tolerability, pharmacokinetics (PK), pharmacodynamics (PD) and efficacy of RO7034067 in Type 2 and 3 spinal muscular atrophy (SMA) patients. The study consists of an exploratory dose-finding part (Part 1) and a confirmatory part (Part 2).
The primary objective of Part 1 is to evaluate the safety, tolerability, PK and PD of RO7034067 in patients with Type 2 and Type 3 (ambulant or non-ambulant) SMA, and to select the dose for Part 2 of the study.
Part 1 was a double-blinded, placebo-controlled, randomized (2:1 RO7034067:placebo), exploratory dose-finding study in Type 2 and Type 3 (ambulant and non-ambulant) SMA patients. This will be followed by an open-label extension (OLE) at the same dose as selected for Part 2 of the study.
Part 1 of the study enrolled patients in two age groups: • Group A: adolescent and adult patients aged 12 25 years • Group B: children aged 2 11 years RO7034067 dose levels were investigated in a staggered, dose escalation manner in both age groups.
The dose recommended by the IMC for this age group according to the target AUC0-24 h,ss of 700 ng[…]h/mL was 0.02 mg/kg (see IMC recommendation of 12 Dec. 2016 in Appendix 1); 10 patients aged 3-11 years were enrolled in Cohort B1. • At the same time point (i.e., once safety and tolerability were confirmed based on the review of at least 4 weeks of treatment at 3 mg once daily in 9 patients in Cohort A1), enrolment was opened to another cohort of 9 adult and adolescent patients (Cohort A2) receiving RO7034067 5 mg once daily (see IMC recommendation of 19 Jan. 2017 in Appendix 1). As per protocol, the higher dose level was determined such as to achieve maximum SMN protein increase, without exceeding the exposure cap (Cmax 400 ng/mL; mean AUC0 24 h,ss 2000 ng[…]h/mL); 10 patients aged 13[…]24 years were enrolled in Cohort A2. • Based on the review of a minimum of 4 weeks of treatment at 0.02 mg/kg in 9 patients enrolled in Cohort B1, the following recommendations were made by the IMC: i) to increase the dose in these patients to 0.05 mg/kg without exceeding a cap dose of 3 mg, and ii) to enroll a minimum of 9 additional patients aged 2[…]11 years at a dose of 0.05 mg/kg without exceeding a cap dose of 3 mg (Cohort B2), targeting at least 5 patients aged 2[…]6 years (see IMC recommendation of 13 Mar. […] At the same time point, enrollment was opened to another cohort of 9 patients at the dose of 0.25 mg/kg without exceeding a cap dose of 5 mg (Cohort B3), determined such as to achieve maximum Survival of Motor Neuron (SMN) protein increase, without exceeding the exposure cap (Cmax 400 ng/mL; mean AUC0-24 h,ss 2000 ng[…]h/mL); 10 patients aged 2[…]11 years were enrolled in Cohort B3. • Upon completion of at least 12 weeks of placebo-controlled treatment by a minimum of 9 patients of each cohort, the IMC reviewed all available data from the cohort to make the decision to switch placebo patients to active treatment at the dose tested in their respective cohort. Dates of the IMC decisions to switch placebo patients to active treatment in the respective cohorts are provided in Section 1.3. • For the last cohort in Part 1 (Cohort B3), all available safety, tolerability, PK and PD data following completion of a minimum of 4 weeks treatment by the 9th patient (including all available data for the 10th patient of the last cohort who was enrolled approximately 1 week after the 9th patient, and all available data from all previous cohorts) were reviewed by the IMC in order to select the dose to be administered in Part 2 of the study. This dose selection was confirmed by the external iDMC following review of the same data package. […]

## Cc1cn2nc(-c3cc(=O)n4cc(N5CCNC6(CC6)C5)ccc4n3)cc(C)c2n1 [RO7034067, 7-(4,7-diazaspiro[2.5]octan-7-yl)-2-(2,8-dimethylimidazo[1,2-b]pyridazin-6-yl)pyrido[1,2-a]pyrimidin-4-one]
[1]
  aqueous solubility: high aqueous solubility
[2]; 0.02 mg
  Fold-Increase from the Baseline in SMN Protein on Day 28, median: 1.09 fold
[2]; 0.05 mg
  Fold-Increase from the Baseline in SMN Protein on Day 28, median: 1.51 fold
[2]; 0.15 mg/kg
  Fold-Increase from the Baseline in SMN Protein on Day 28, median: 1.67 fold
[2]; 0.25 mg/kg
  Fold-Increase from the Baseline in SMN Protein on Day 28, median: 1.96 fold
[2]; 0.25 mg/kg, 2-11 year age group
  SMN protein increase versus baseline (median): 96%
[2]; 3 mg
  Fold-Increase from the Baseline in SMN Protein on Day 28, median: 2.25 fold
[2]; 5 mg
  Fold-Increase from the Baseline in SMN Protein on Day 28, median: 2.51 fold
[2]; 5 mg, SMA patients 12-25 years old
  median SMN protein increase versus baseline: 151%
